In publication PMC5610309, “In vivo target exploration of apidaecin based on Acquired Resistance induced by Gene Overexpression (ARGO assay)” (Scientific Reports, 2017):
Where no end group is shown, it is not given here. [ ]: non-standard residue; d: D form.

Experiments:
[1] = test system: enoyl-ACP reductase (FabI); experiment: ARGO assay, positive control, FabI-overexpressing E. coli; type: cell-based, Escherichia coli; conditions: 250 nM triclosan; increasing IPTG (Fig. S2)
Procedure: IPTG Concentration / μM IPTG Concentartion / μM
Figure S2. Acquired resistance assay induced by overexpression of target proteins. A:
concentration. Black line: no triclosan (OD Tc(-)). Gray line: 250 nM triclosan (OD Tc(+)).
overexpression. […] Black line: no
trimethoprim. Gray line: 125 μM trimethoprim. D: The degree of resistance against

[2] = test system: dihydrofolate reductase (FolA); conditions: 125 μM trimethoprim; increasing IPTG (Fig. S2)
Procedure: (§4) The recombinant E. coli strain JM109 harboring pCA24N derivatives were grown on 2 mL LB medium containing 30 µg/mL chloramphenicol in a test tube, with reciprocal shaking at 175 rpm at 37 °C for 18 h. A total of 80 μL culture medium was transferred into fresh 2 mL LB medium containing 30 µg/mL chloramphenicol and different concentrations of IPTG (see Supplementary Information for detail), and further incubated at 37 °C with until the OD at 600 nm reached 0.4. The pre-culture was diluted 10^5 times with PB medium containing 30 µg/mL chloramphenicol so that the initial cell density was approximately 1000 colony forming units/mL. Then a 50 µL aliquot was combined with a 50 µL mixture of apidaecin and IPTG (final concentration of apidaecin was 6.25 µM). As a control, 50 µL IPTG and 50 µL sterilized water were added, respectively. The cells were cultivated in 96-well plates using a microplate shaker (BioShaker M-BR-024 Taitec, Shizuoka, Japan) with shaking at 1200 rpm at 30 °C for 18 h. […] Cell growth in a 96-well plate was optically measured using a microplate reader (iMark Microplate Absorbance Reader, Bio-rad) at a wavelength of 595 nm. The degree of resistance against apidaecin was defined as the OD obtained with the addition of IPTG and apidaecin divided by the OD with the addition of IPTG only.1 Degreeofresistance=ODwithapidaecinandIPTG/ODwithIPTG […]

[3] = test system: lacZ expression in PURE system (PrfA-dependent termination); experiment: Inhibitory assay using the in vitro transcription-translation system (PURE system); type: biochemical; conditions: 200 μM apidaecin; for inhibition ratio of lacZ (UAG) expression: PrfB omitted, 37 °C, 3 h, immunoblot
Procedure: The PCR products were purified by agarose gel extraction and used for second PCR to add the T7 promoter sequence using a forward primer 2, […], and aforementioned reverse primers. The amplified DNA was treated with chloroform/phenol/isoamyl alcohol, concentrated by ethanol precipitation, and diluted to 100 ng/μl using RNase free water. The DNA solution was used for in vitro transcription-translation reaction using PUREfrex ver 1.0 (GeneFrontier Corp., Chiba, Japan). The solution I, II, and III provided by the kit protocol was combined with the apidaecin solution to contain 0 to 200 μM apidaecin. […] Ten microliter solution I, 1 μL solution II, 1 μL solution III, 0.1 μL 6 μM T7 RNA polymerase, 0.5 μL 4 or 0.8 μM RF1, 0.5 μL 4 μM RF3, 0.5 μL 40 μM RRF, and 0–4 μL 1 mM apidaecin were combined and diluted to 19 μL with RNAse free water. The mixture was incubated at room temperature for 15 min, and 1 μL template DNA (LacZ [UAG]) was added. Then the mixture was further incubated at 37 °C from 3 h. Then 1 μL reaction mixture was used for immnoblot analysis.

PrfB = experiment: ARGO assay, apidaecin resistance of PrfB-overexpressing E. coli (ASKA clone); type: cell-based, Escherichia coli; conditions: 6.25 μM apidaecin; E. coli JM109 ASKA clone, IPTG-induced; 30 °C, 18 h; OD595
Procedure: as §4

[4] = test system: lacZ expression in MG1655(lacZ-UAA), MG1655(lacZ-UGA), MG1655(lacZ-UAG); experiment: In vivo inhibitory assay of lacZ expression with different stop codons (immunoblot); type: cell-based, Escherichia coli; conditions: 250 and 500 μM apidaecin
Procedure: (§1) The E. coli strain MG1655 from Procedure C were harvested and suspended in lysis buffer containing 50 mM sodium phosphate (pH 7.0), 10 mM imidazol, and 300 mM NaCl. The OD was normalized using lysis buffer, after which the crude extract was prepared using sonication on ice 5 s × 5 times. Anti-β-galactosidase antibody (Biotin) ab6645 was purchased from abcam (Cambridge, UK) and used at a 10^5-fold dilution. Immun-Star Goat Anti-Rabbit (GAR)-HRP Conjugate (Biorad) was used as the secondary antibody. Bands were detected using the ECL Select Western Blotting Detection Reagent (GE Healthcare, Little Chalfont, UK) and were recorded on ChemiDox XRS (Biorad). Band density was quantified using ImageJ software.
The C-terminal region of the lacZ gene in E. coli chromosomal DNA was replaced with three DNA fragments containing three stop codons (Fig. S4). The DNA fragments including a flippase recognition target (FRT) cassette with a kanamycin-resistant gene, and the C-terminal sequence of the lacZ gene with three stop codons, were amplified from pKD13 using three forward primers: […], […], and […] (stop codons are underlined), and a reverse primer: […]. The template DNA in the PCR products was removed by DpnI treatment. […] Ampicilline-sensitive colonies were chosen and recombination in their chromosomal DNA was evaluated by colony PCR and sequencing. […]

[5] = test system: lacZ reporter gene expression in E. coli MG1655; experiment: Inhibition assay of LacZ expression (X-gal chromogenesis); type: cell-based, Escherichia coli; conditions: 500 μM; E. coli treated 1 h, then IPTG; ΔOD595 with and without X-gal; three trials
Procedure: (§2) The 96-well plate culture was started as well as Procedure B with a modification that the cells were resuspended in 1 mL PB medium containing 100 μg/ml 5-bromo-4-chloro-3-indolyl-β-D-galactopyranoside (X-gal). After 60 min, 0.1 mM IPTG was added and the plate was further incubated for 120 min. The OD of the culture in the test tube was measured using a UV-VIS spectrophotometer (Genesys20, Thermo Scientific, Waltham, MA, USA) at 600 nm, and OD in the 96-well plate was monitored at 595 nm using an iMark Microplate Absorbance Reader (Biorad, Hercules, CA, USA).
E. coli MG1655 cells were cultivated using Procedure D. The activity of LacZ was estimated based on the subtraction of ODs at 595 nm obtained with and without supplement of X-gal.

[6] = test system: peptide chain release factor 1 (PrfA); experiment: ARGO assay, apidaecin resistance of PrfA-overexpressing E. coli (ASKA clone); type: cell-based, Escherichia coli; conditions: 6.25 μM apidaecin; E. coli JM109 ASKA clone, IPTG-induced; 30 °C, 18 h; OD595; three trials
Procedure: as §4

[7] = test system: lacZ mRNA transcription in E. coli MG1655; experiment: Quantification of lacZ mRNA by real-time reverse transcriptase-PCR; type: cell-based, Escherichia coli; conditions: 500 μM and 0.1 mM IPTG; quantitative real-time PCR
Procedure: (§3) The 96-well plate culture was started following Procedure B. After 60 min, 0.1 mM IPTG was added and the plate was incubated for an additional 60 min.
The E. coli strain MG1655 from Procedure C were harvested by centrifugation at 4 °C, and total RNA was extracted using Isogen (Nippongene, Toyama, Japan) according to the manufacturer’s instructions. The reverse transcriptase reaction was performed using PrimeScript RT-PCR Kit (Takara, Tokyo, Japan) based on the provided protocol. The lacZ fragment was amplified using a pair of primers: lacZ_RTf1, […] and lacZ_RTr1, with […] used as the standard. The standard curve was made in the range of 10^−3 to 10^−7 ng DNA/μL. A total of 6 μL reverse transcriptase reaction product was combined with 10 μL TaqMan Gene Expression Master Mix (Applied Biosystems, Foster City, CA, USA), 1 μL lacZ_RTf1, 1 μL lacZ_RTr1, and 2 μL TaqMan probe lacZ_2116, […], which was bound to fluorescein as a reporter and NFQ-MGB as a quencher. The samples were prepared in triplicate and transferred to a MicroAmp Fast Optical 48-well Reaction Plate (Applied Biosystems) and sealed with a MicroAmp Optical 48-well Adhesive Film. The plate was centrifuged at 1,970 g for 10 min at 4 °C. Real-time PCR (qPCR) was performed using the StepOne real-time PCR system (Applied Biosystems). […]

E. coli [8] = experiment: Growth of E. coli in 96-well plate culture with antimicrobial agent; type: cell-based, Escherichia coli; conditions: 500 μM
Procedure: E. coli were grown on 2 mL LB medium in a test tube containing 10 g/L trypton, 5 g/L Bacto yeast extract, and 10 g/L sodium chloride, with reciprocal shaking at 175 rpm at 30 °C for 14 h. A total of 20 μL culture medium was transferred into 2 mL fresh LB medium and incubated at 30 °C until the OD at 600 nm reached 0.2.
The cells from Procedure A were washed with 2 mL PB medium containing 10 g/L trypton and 9 g/L sodium chloride, and re-suspended in 1 mL PB medium. A total of 80 μL medium was combined with 20 μL antimicrobial agents, followed by incubation in a 96-well plate at 30 °C for 4 h with shaking at 1200 rpm.
as §2

[9] = test system: β-galactosidase protein synthesis in E. coli MG1655; experiment: Immunoblot analysis of native LacZ; type: cell-based, Escherichia coli; conditions: 500 μM and 0.1 mM IPTG
Procedure: as §3, §1

E. coli [10] = conditions: relative to wild type apidaecin Ho +; cited from earlier work

## Oc1cc(Cl)ccc1Oc1ccc(Cl)cc1Cl [triclosan]
[1]
  sensitivity of E. coli upon overexpression of FabI: reduced the sensitivity

## COc1cc(Cc2cnc(N)nc2N)cc(OC)c1OC [trimethoprim]
[2]
  sensitivity of E. coli upon overexpression of FolA: reduced the sensitivity

## GNNRPVYIPQPRPPHPRL [apidaecin, Apidaecin Ib, proline-rich AMP isolated from the hemolymph of honeybees; purchased from Bex Corp]
[3]; lacZ-UAA, lacZ-UGA, lacZ-UAG templates, UAG stop codon
  inhibition efficiency of lacZ expression by stop codon: most efficient inhibition
[3]; low PrfA concentration (20 nM PrfA)
  inhibition ratio of lacZ (UAG) expression: 45%
[3]; standard PrfA concentration (100 nM PrfA)
  inhibition ratio of lacZ (UAG) expression: 21%
PrfB
  cell growth in the presence of apidaecin upon PrfB overexpression: did not promote cell growth
[4]; SDS-PAGE, all three stop codon constructs
  expression levels of whole proteins: decreased expression levels of whole proteins
[4]; immunoblot anti-LacZ, UAG recognized only by PrfA
  degree of inhibition of lacZ expression, UAG stop codon versus other constructs: considerably stronger inhibition
[5]
  inhibition of β-galactosidase-mediated chromogenesis: almost completely inhibited
[6]
  degree of resistance against apidaecin upon PrfA overexpression (OD with apidaecin and IPTG / OD with IPTG): up to 80%
[7]
  influence on lacZ mRNA transcription: no significant influence
E. coli [8]; PB medium, 96-well plate, 30 °C, OD595, three trials
  inhibition of cell growth: almost completely inhibited
[9]
  β-galactosidase protein synthesis: considerably diminished

## L17D-L mutant of apidaecin Ho + (GKPRPQQVPPRPPHPR[dL])
E. coli [10]
  antibacterial activity toward E. coli compared to wild type peptide: 0.1 fold

## L18dL apidaecin 1b
E. coli [8]; data not shown
  antimicrobial effect against E. coli: no antimicrobial effect
